US20230338363A1, “COMBINATION CHEMO-IMMUNOTHERAPY FOR PANCREATIC CANCER USING THE IMMUNOGENIC EFFECTS OF AN IRINOTECAN SILICASOME NANOCARRIER PLUS ANTI-PD-1” (The Regents of the University of California, priority 2020, published 2023)

Assays:
KPC cells [1] = test: Lysosomal alkalization, LysoTracker Red DND 99 confocal microscopy; assay type: cell-based, mouse; conditions: CQ 32 µM, 24 h
Protocol: Approximately 1.5×10^4 KPC cells were seeded in µ-Slide 8 well (ibidi, 80826). To reveal the intracellular distribution of IRIN, attached KPC cells were treated with IRIN (300 µM) for 24 h. Cell membranes were stained using an Alexa Fluor® 594 conjugated WGA dye (Invitrogen™, W11262) at 2 µg/mL for 10 minutes. After washing, the cells were visualized using a Leica SP8-MD confocal microscope under the 100× objective lens. The excitation and emission wavelengths for IRIN were 405 nm and 440~490 nm, respectively^[51]
IRIN-treated KPC cells were washed and replenished with fresh media containing 100 nM DND-99 dye and 5 µg/mL Hoechst 33342 for nuclear staining. The cells were incubated at 37° C. for 0.5 h, followed by washing with phenol red free media. The cells were then visualized using a Leica SP8-MD confocal microscope under the 100× objective lens.
(§1) The of the IRIN silicasome on lysosomal alkalization was performed at drug concentrations of 75 µM and 300 µM in KPC cells. Empty silicasomes (in which a 500 µg/mL particle dose is representative of an encapsulated IRIN dose of 300 µM) was included as control. The assessment of LC3B, p62 and PD-L1 immunoblotting and IF staining were performed in KPC cells during treatment with the IRIN silicasome or empty silicasomes, as described for the free drug.

KPC tumor = test: Vaccination experiment with dying chemo-treated KPC cells; assay type: in vivo, mouse
Protocol: The vaccination schedule is highlighted in FIG. 2, panel C. Eight million KPC cells were seeded in a tissue culture dish. After cellular attachment, IRIN (300 µM or OX (500 µM were added for 24 h. Cells were collected and washed before resuspended in 0.8 mL cold PBS. For vaccination, each mouse received subcutaneous (SC) injection of a 100 µL suspension of chemo-treated cells in the right flank. Control animals received SC injection with 0.1 mL PBS. The vaccination was repeated after 7 days. Fourteen days after the 1st injection, the animals received SC injection of normal KPC cells (1 million cells in 0.1 mL PBS) in the contralateral (left) flank. Tumor growth was measured by a digital caliper every 2-3 days, and the tumor volume calculated according to the formula: length × width^2 /2. Animals were sacrificed on day 26 and the tumors were collected, weighed and fixed in 10% formalin, followed by paraffin embedding and sectioning to derive to 4 µm thick slices for IHC analysis. Primary antibodies to CD8 (#14-0808-82) and FoxP3 (#13-5773-82) were purchased from ThermoFisher. IHC staining was performed in the UCLA Translational Pathology Core Laboratory (TPCL). The slides were scanned and images assessed by using Aperio ImageScope software (Leica).

KPC cells [2] = test: Autophagy (LC3B, p62) and PD-L1 expression by IF staining and immunoblotting; assay type: cell-based, mouse; conditions: IRIN 300 µM or OX 500 µM, 24 h
Protocol: KPC cells were seeded in the µ-Slide 8 well. After cell attachment, the cells were treated by IRIN at 300 µM for 24 h. Control treatments included exposure to PBS, chloroquine (32 µM), rapamycin (100 nM) and IFN-γ (10 ng/ml). Before IF staining, the cells were washed with PBS and fixed with 4% paraformaldehyde at RT for 15 minutes. Cells were treated in 1% BSA (blocking reagent) plus 0.2% triton-X100 in PBS for 30 minutes. Subsequently, the cells were incubated with primary antibody that recognizes LC3B (Cell Signaling #2775, 1:200) or p62/SQSTM1 (Cell Signaling #23214, 1:800) in 1% BSA containing PBS solution at 4° C. overnight. The sample was washed twice in PBS and further stained using an Alexa Fluor® 488 conjugated goat anti-rabbit secondary antibody (Thermo Fisher, A-11008, 1:1000) and 5 µg/mL Hoechst 33342 dye for 1 h. Cell surface staining for PD-L1 assessment was carried out in fixed (4% paraformaldehyde) cells, using a staining process similar to the above protocol. Primary PD-L1 antibody (Abcam, ab213480, 1: 500) and Alexa Fluor® 594 conjugated goat anti-rabbit secondary antibody (Thermo Fisher, A-11012, 1:1000) were used. The cells were visualized using a Leica SP8-MD confocal microscope under the 100x objective lens.
To confirm the confocal staining results for LC3B, p62 and PD-L1, western blotting experiments were performed in KPC cells exposed to IRIN (300 µM) or OX (500 µM) for 24 hr. Another experiment also looked at the dose-dependent effect of IRIN at concentrations of 75, 150, 300 and 600 µM for 24 h. Briefly, ~2×10^5 KPC cells per well were seeded in 6 well-plates. After drug exposure, KPC cells were harvested and treated with cold RIPA lysis buffer (Cell Signaling # 9806S), supplemented with a cocktail of protease and phosphatase inhibitors (Cell Signaling #5872) and incubated on ice for 30 mins. After centrifugation of the lysates at 12,000 rpm for 10 min, protein concentration was quantified by a Bradford assay (Biorad). Equal amounts of protein in the supernatants were loaded onto a 10-20% Tris-glycine SDS-PAGE gel (Invitrogen, Grand Island, NY). The proteins were subsequently transferred to a PVDF membrane. The membrane was blocked with 5% non-fat dry milk/TBST, before incubation with primary and HRP-conjugated secondary antibodies. The primary antibodies included: LC3B (Cell Signaling #2775), p62/SQSTM1 (Cell Signaling #5114), NF-κB p65 (Cell Signaling #8242), Phospho-NF-xB p65 (Cell Signaling #3033) and PD-L1 (Abcam, ab213480). The blots were developed by soaking in ECL substrate (Thermo Fisher Scientific). Densitometric analysis of each protein band on the film was quantified by ImageJ software and normalized to the intensity of a corresponding housekeeping protein.
as §1

PDAC = conditions: resected PDAC patients; p < 0.01; cited from earlier work

## chloroquine diphosphate salt
KPC cells [1]
  alkalizing effect on lysosomal pH: alkalizing effect of IRIN was duplicated

## O=C1[O][Pt]2([NH][C@@H]3CCCC[C@H]3[NH]2)[O]C1=O [oxaliplatin]
KPC tumor; KPC cells treated with 300 µM IRIN or 500 µM OX, p <0.05
  growth of tumor on the opposite flank vs PBS control: improved the shrinkage of the tumor on the opposite flank significantly
KPC tumor; harvested tumors, day 26
  CD8+ staining number (IHC): slight increase
  CD8+/Treg cells ratio (IHC): significantly (p <0.01) increased
KPC cells [2]
  PD-L1 expression: failed to upregulate PD-L1 expression
  autophagy flux (Western blotting of LC3 and p62): induced autophagy

## Nc1ccn([C@@H]2O[C@H](CO)[C@@H](O)C2(F)F)c(=O)n1 [GEM, gemcitabine]
PDAC
  median overall survival: 35.0 months
